Where two headings read alike, the source gives them in different places.
Tested on: cancer cell lines
Assay: Cancer cell proliferation activity (CellTiterGlo, 72 h)
Assay type: cell-based
Conditions: 72 h, 72 h, read-out: IC50
In short: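 Cells seeded overnight at 37 °C, then dosed with compound at 0.1% final DMSO and incubated 72 h at 37 °C (5% or 10% CO2 by medium).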

IC50 (5637 cell line (bladder)): 880 nM
IC50 (CLS439 cell line (bladder)): > 50000 nM
IC50 (HS729 cell line (muscle)): 1240 nM
IC50 (JAR cell line (placenta)): 440 nM
IC50 (U20S cell line, bone): 840 nM
IC50 (Homo sapiens, 22Rv1, 72 h, 22RV1 cell line (prostate)): 1860 nM
IC50 (Homo sapiens, 786-0, 72 h, 786O cell line (kidney)): 620 nM
IC50 (Homo sapiens, A204, 72 h, A204 cell line (muscle)): 550 nM
IC50 (Homo sapiens, A549, 72 h, A549 cell line, lung): > 50000 nM
IC50 (Homo sapiens, A673, 72 h, A673 cell line (bone)): 2560 nM
IC50 (Homo sapiens, A2780, 72 h, A2780 cell line (ovary)): 910 nM
IC50 (Homo sapiens, A-375, 72 h, A375 cell line (skin)): 530 nM
IC50 (Homo sapiens, A-431, 72 h, A431 cell line (skin)): 530 nM
IC50 (Homo sapiens, ACHN, ACHN cell line (kidney)): > 50000 nM
IC50 (Homo sapiens, ASPC1, 72 h, ASPC1 cell line (pancreas)): 470 nM
IC50 (Homo sapiens, BT-20, 72 h, BT20 cell line (breast)): 550 nM
IC50 (Homo sapiens, C-33-A, C33A cell line, endometrial): 950 nM
IC50 (Homo sapiens, CAKI-1, 72 h, CAKI1 cell line (kidney)): 60 nM
IC50 (Homo sapiens, COLO 205, 72 h, COLO205 cell line (colon)): 1060 nM
IC50 (Homo sapiens, COLO-678, 72 h, COLO678 cell line (colon)): > 50000 nM
IC50 (Homo sapiens, Ca-Ski, CASKI cell line, endometrial): 310 nM
IC50 (Homo sapiens, Caco-2, 72 h, CACO2 cell line (colon)): 1040 nM
IC50 (Homo sapiens, Calu-6, 72 h, CALU6 cell line (lung)): 650 nM
IC50 (Homo sapiens, DLD-1, 72 h, DLD1 cell line (colon)): 2070 nM
IC50 (Homo sapiens, DU-145, 72 h, DU145 cell line (prostate)): 190 nM
IC50 (Homo sapiens, EFO-21, 72 h, EFO21 cell line (ovary)): 520 nM
IC50 (Homo sapiens, EJ-28, 72 h, EJ28 cell line (bladder)): 490 nM
IC50 (Homo sapiens, Granta-519, 72 h, GRANTA-519 cell line (hematological)): > 50000 nM
IC50 (Homo sapiens, HCT-15, 72 h, HCT15 cell line (colon)): 2780 nM
IC50 (Homo sapiens, HCT-116, 72 h, HCT116 cell line (colon)): 820 nM
IC50 (Homo sapiens, HEK293, 72 h, HEK293 cell line (kidney)): 710 nM
IC50 (Homo sapiens, HL-60, 72 h, HL-60 cell line (hematological)): 830 nM
IC50 (Homo sapiens, HT-29, 72 h, HT29 cell line (colon)): 530 nM
IC50 (Homo sapiens, HT-1080, 72 h, HT1080 cell line (connective tissue)): > 50000 nM
IC50 (Homo sapiens, HeLa, HELA cell line, endometrial): 1070 nM
IC50 (Homo sapiens, HepG2, 72 h, HEPG2 cell line (liver)): 670 nM
IC50 (Homo sapiens, Hs-578T, HS578T cell line, breast): 850 nM
IC50 (Homo sapiens, IGROV-1, 72 h, IGROV1 cell line (ovary)): 380 nM
IC50 (Homo sapiens, IMR-90, 72 h, IMR90 cell line, lung): 640 nM
IC50 (Homo sapiens, J82, 72 h, J82 cell line (bladder)): 540 nM
IC50 (Homo sapiens, JEG-3, 72 h, JEG3 cell line (placenta)): 670 nM
IC50 (Homo sapiens, JIMT-1, 72 h, JIMT1 cell line (breast)): 160 nM
IC50 (Homo sapiens, K562, 72 h, K-562 cell line (hematological)): > 50000 nM
IC50 (Homo sapiens, Kasumi 1, 72 h, KASUMI-1 cell line (hematological)): 150 nM
IC50 (Homo sapiens, L-363, 72 h, L-363 cell line (hematological)): 570 nM
IC50 (Homo sapiens, LoVo, LOVO cell line (colon)): 290 nM
IC50 (Homo sapiens, MCF7, 72 h, MCF7 cell line (breast)): > 50000 nM
IC50 (Homo sapiens, MDA-MB-231, 72 h, MDAMB231 cell line (breast)): > 50000 nM
IC50 (Homo sapiens, MDA-MB-435, 72 h, MDAMB435 cell line (skin)): 1720 nM
IC50 (Homo sapiens, MDA-MB-436, 72 h, MDAMB436 cell line (breast)): 370 nM
IC50 (Homo sapiens, MDA-MB-468, 72 h, MDAMB468 cell line (breast)): 690 nM
IC50 (Homo sapiens, MG-63, 72 h, MG63 cell line (bone)): > 50000 nM
IC50 (Homo sapiens, MHH-ES-1, 72 h, MHHES1 cell line (bone)): 600 nM
IC50 (Homo sapiens, MIA PaCa-2, 72 h, MIAPACA2 cell line (pancreas)): > 50000 nM
IC50 (Homo sapiens, MINO, MINO cell line (hematological)): 250 nM
IC50 (Homo sapiens, MV4-11, 72 h, MV4-11 cell line (hematological)): 170 nM
IC50 (Homo sapiens, NCI-H23, 72 h, NCI-H23 cell line (lung)): 830 nM
IC50 (Homo sapiens, NCI-H82, 72 h, NCIH82 cell line (lung)): 610 nM
IC50 (Homo sapiens, NCI-H292, 72 h, NCIH292 cell line (lung)): > 50000 nM
IC50 (Homo sapiens, NCI-H460, 72 h, NCIH460 cell line (lung)): 970 nM
IC50 (Homo sapiens, OVCAR-3, 72 h, OVCAR3 cell line (ovary)): 260 nM
IC50 (Homo sapiens, OVCAR-4, 72 h, OVCAR4 cell line (ovary)): 960 nM
IC50 (Homo sapiens, PANC-1, 72 h, PANC1 cell line (pancreas)): > 50000 nM
IC50 (Homo sapiens, PC-3, 72 h, PC3 cell line (prostate)): 870 nM
IC50 (Homo sapiens, PLC-PRF-5, 72 h, PLCPRF5 cell line (liver)): 3200 nM
IC50 (Homo sapiens, Panc1005, 72 h, PANC1005 cell line (pancreas)): 440 nM
IC50 (Homo sapiens, RD, RD cell line (muscle)): 1460 nM
IC50 (Homo sapiens, Ramos, RAMOS cell line (hematological)): 940 nM
IC50 (Homo sapiens, SAOS-2, 72 h, SAOS2 cell line (bone)): 640 nM
IC50 (Homo sapiens, SF-268, 72 h, SF268 cell line (brain)): > 50000 nM
IC50 (Homo sapiens, SF-295, 72 h, SF295 cell line (brain)): 1420 nM
IC50 (Homo sapiens, SK-BR-3, 72 h, SKBR3 cell line (breast)): 150 nM
IC50 (Homo sapiens, SK-HEP1, 72 h, SKHEP1 cell line (liver)): > 50000 nM
IC50 (Homo sapiens, SK-LMS-1, 72 h, SKLMS1 cell line (uterus)): 470 nM
IC50 (Homo sapiens, SK-MEL-5, 72 h, SKMEL5 cell line, skin): > 50000 nM
IC50 (Homo sapiens, SK-MEL-28, 72 h, SKMEL28 cell line (skin)): 1260 nM
IC50 (Homo sapiens, SK-N-AS, SKNAS cell line (brain)): 1140 nM
IC50 (Homo sapiens, SK-N-SH, SKNSH cell line (brain)): 750 nM
IC50 (Homo sapiens, SK-OV-3, 72 h, SKOV3 cell line (ovary)): 760 nM
IC50 (Homo sapiens, SNB-75, 72 h, SNB75 cell line (brain)): 2370 nM
IC50 (Homo sapiens, SU-DHL10, 72 h, SU-DHL-10 cell line (hematological)): 120 nM
IC50 (Homo sapiens, SU-DHL-6, 72 h, SU-DHL-6 cell line (hematological)): 430 nM
IC50 (Homo sapiens, SW-620, 72 h, SW620 cell line (colon)): 730 nM
IC50 (Homo sapiens, T-24, 72 h, T24 cell line (bladder)): 1460 nM
IC50 (Homo sapiens, TE-671, 72 h, TE671 cell line (muscle)): 4780 nM
IC50 (Homo sapiens, THP-1, 72 h, THP-1 cell line (hematological)): > 50000 nM
IC50 (Homo sapiens, U-87 MG, U87MG cell line (brain)): > 50000 nM
IC50 (Homo sapiens, UMUC3, 72 h, UMUC3 cell line (bladder)): > 50000 nM
IC50 (Homo sapiens, UO-31, 72 h, UO31 cell line (kidney)): 630 nM
IC50 (Homo sapiens, WSU-NHL, WSU-NHL cell line (hematological)): 720 nM
IC50 (MT-3, 72 h, MT3 cell line (breast)): 510 nM
IC50 (NCI-H358M, NCIH358M cell line (lung)): 560 nM
IC50 (PBMC, PBMC (hematological)): 310 nM
IC50 (RD-ES, RDES cell line (bone)): 410 nM
Compound: CC[C@]1(CO)O[C@@H](n2cnc3c(N)nc(F)nc32)C[C@@H]1O [Cpd. No. 1, (2R,3S,5R)-5-(6-amino-2-fluoro-9H-purin-9-yl)-2-ethyl-2-(hydroxymethyl)tetrahydrofuran-3-ol]

— patent publication US20250215039A1, “NUCLEOSIDES FOR TREATING CANCER” (PRIMEFOUR THERAPEUTICS, INC., priority 2022, published 2025)
